{"source": "patent US20180193412A1", "about": "“Method of In Vivo Treatment” (Hexima Limited, priority 2015, published 2018)", "key": {"[1]": {"system": "A. niger", "assay": "Inhibition of growth of A. niger, Example 2 antifungal assay", "type": "cell-based", "conditions": "½ strength PDB, 30° C., A595", "experimental": "(§1) The inhibitory effects of the plant defensins on the growth of Candida albicans, Aspergillus fumigatus (obtained from the National Mycology Reference Centre, South Australia Pathology at the Women's and Children's Hospital, Adelaide, Australia), C. glabrata, C. tropicalis, A. flavus, A. niger, A. fumigants, Cryptococcus neoformans and C. gattii (obtained from Dee Carter, University of Sydney, New South Wales, Australia) are measured essentially as described by Broekaert et al. (1990) FEMS Microbiol Lett 69:55-59.\n(§2) Spores of A. flavus. A. niger and A. fumigatus are isolated from sporulating fungus growing on ½ strength Sabouraud dextrose agar. Spores were removed from the plates by the addition of ½ strength potato dextrose broth (PDB). C. albicans, C. glabrata, C. tropicalis, C. neoformans and C. gattii cells are grown in Yeast Peptone Broth (YPD) for 16 h. Spore and cell concentrations are measured using a hemocytometer.\n(§3) Antifungal assays are conducted in 96 well microtitre plates essentially as herein described. Wells are loaded with 20 μL of filter sterilized (0.22 μm syringe filter, Millipore) defensin (10× stock for each final concentration) or water and 80 μL of 5×10^4 spores/mL (A. flavus, A. niger, A. fumigatus), 5,000 cells/mL (C. albicans, C. glabrata, C. tropicalis) or 1×10^6 cells/mL (C. neoformans, C. gattii) in ½ strength PDB. The plates are incubated at 30° C. Fungal growth is assayed by measuring optical density at 595 nm (A595) using a microtitre plate reader (SpectraMax Pro M2; Molecular Devices. Growth is allowed to proceed until the optical density (OD) of the fungus in the absence of any test defensin reached an OD of 0.2. Each test is performed in duplicate."}, "[2]": {"system": "C. glabrata", "assay": "Inhibition of growth of C. glabrata, Example 2 antifungal assay", "type": "cell-based", "conditions": "½ strength PDB, 30° C., A595", "experimental": "as §1, §2, §3"}, "[3]": {"system": "B. subtilis", "assay": "Inhibition of the growth of Bacillus subtilis (OD595, 18 hours)", "type": "cell-based", "conditions": "at the concentrations tested (0.3125-20 μM)", "experimental": "(§4) A single E. coli or B. subtilis colony was used to inoculate 5 ml of Luria-Bertani media and grown overnight at 37° C. The following day, the optical density of the culture was measured and the bacteria diluted to an optical density at 600 nm (OD600) of 0.01 in Mueller-Hinton Broth. Diluted E. coli or B. subtilis were added to 96-well plates with defensins at concentrations of 20 μM, 10 μM, 5 μM, 2.5 μM, 1.25 μM, 0.625 μM or 0.3125 μM. Plates were read at OD595 to obtain time zero data points. Plates were incubated at 37° C. for 18 hours before reading again at OD595 to assess the amount of bacterial growth."}, "[4]": {"system": "T. rubrum", "assay": "Inhibition of growth of Trichophyton rubrum by plant defensins (microtitre A595 antifungal assay)", "type": "cell-based", "conditions": "½ strength PDB, 30° C.", "experimental": "(§5) The inhibitory effects of the plant defensins on the growth of Trichophyton rubrum, T. interdigitale, Microsporum fulvum and C. albicans (all obtained from the National Mycology Reference Centre, South Australia Pathology at the Women's and Children's Hospital, Adelaide, Australia) are measured essentially as described by Broekaert et al. (1990) FEMS Microbiol Lett 69:55-59.\n(§6) Spores of T. rubrum, T. interdigitale and M. fulvum are isolated from sporulating fungus growing on ½ strength Sabouraud dextrose agar. Spores were removed from the plates by the addition of ½ strength potato dextrose broth (PDB). C. albicans cells are grown in Yeast Peptone Broth (YPD) for 16 h. Spore and cell concentrations are measured using a hemocytometer.\nas §3, with “Ξ m” for “μm”, “(T. rubrum, T. interdigitale, M. fulvum) or” for “(A. flavus, A. niger, A. fumigatus),”, “albicans)” for “albicans, C. glabrata, C. tropicalis) or 1×10^6 cells/mL (C. neoformans, C. gattii)”"}, "[5]": {"system": "M. fulvum", "assay": "Inhibition of growth of Microsporum fulvum by plant defensins (microtitre A595 antifungal assay)", "type": "cell-based", "conditions": "½ strength PDB, 30° C., A595", "experimental": "as §5, §6\nas §3, with “Ξ m” for “μm”, “(T. rubrum, T. interdigitale, M. fulvum) or” for “(A. flavus, A. niger, A. fumigatus),”, “albicans)” for “albicans, C. glabrata, C. tropicalis) or 1×10^6 cells/mL (C. neoformans, C. gattii)”"}, "[6]": {"system": "clinical isolates of T. rubrum", "assay": "Cell survival assay for clinical isolates of T. rubrum (plating on agar after defensin treatment, FIG. 3)", "type": "cell-based, Trichophyton rubrum", "experimental": "FIG. 3(A) is a photographic representations of surviving colonies of T. rubrum clinical isolate 14-01 grown on agar plates after treatment with 100 μM HXL008 for 72 h.\nFIG. 3(B) is a photographic representation of surviving colonies of T. rubrum clinical isolate 14-02 grown on agar plates after treatment with 100 μM HXL008 for 72 h.\nFIG. 3(C) is a photographic representation of surviving colonies of T. rubrum clinical isolate 14-03 grown on agar plates after treatment with 100 μM HXL008 for 72 h.\nFIG. 3(D) is a photographic representation of surviving colonies of T. rubrum clinical isolate 13-04 grown on agar plates after treatment with 100 μM HXL008 for 72 h.\nAfter incubation for 72 h, the media from wells containing clinical isolates of T. rubrum incubated with 100 […] HXL008 was plated onto fresh Sabouraud dextrose agar. Plates were incubated at 30° C. for 5 days to allow colonies to develop before being photographed."}, "[7]": {"system": "C. albicans", "assay": "Inhibition of growth of Candida albicans, Example 2 antifungal assay", "type": "cell-based", "conditions": "Table 4; ½ strength PDB, 30° C., A595", "experimental": "as §1, §2, §3"}, "[8]": {"system": "A. flavus", "assay": "Inhibition of growth of A. flavus, Example 2 antifungal assay", "type": "cell-based", "conditions": "½ strength PDB, 30° C., A595", "experimental": "as §1, §2, §3"}, "[9]": {"system": "E. coli", "type": "cell-based, Escherichia coli", "experimental": "as §4"}, "[10]": {"system": "C. tropicalis", "assay": "Inhibition of growth of C. tropicalis, Example 2 antifungal assay", "type": "cell-based", "conditions": "½ strength PDB, 30° C., A595", "experimental": "as §1, §2, §3"}}}
{"substance": "HXL008: Class I plant defensin from Picramnia pentandra (KVCTKPSKFFKGLCGTDGACTTACRKEGLHSGYCQLKGFLNSVCVCRKHC; HXL008 Picramnia pentandra)", "values": [{"measurement": "IC50 against A. niger", "setting": "[1]", "value": 42, "unit": "mg/L"}, {"measurement": "IC50 against C. glabrata", "setting": "[2]", "value": 20, "unit": "mg/L"}, {"measurement": "Inhibition of growth of B. subtilis", "setting": "[3]", "value": "did not inhibit the growth"}, {"measurement": "IC50 against T. rubrum", "setting": "[4]", "value": 3, "unit": "mg/L"}, {"measurement": "IC50 against M. fulvum", "setting": "[5]", "value": 7, "unit": "mg/L"}, {"measurement": "Surviving colonies on agar plates after incubation with defensin", "setting": "[6]; 100 µg/mL HXL008 for 72 h, plated, 30° C. for 5 days", "value": "1-3 colonies"}, {"measurement": "Cell survival of T. rubrum clinical isolates", "setting": "[6]; incubated with HXL008 for 72 h", "value": "almost all the cells were dead"}, {"measurement": "IC50 against C. albicans", "setting": "[7]", "value": 20, "unit": "mg/L"}, {"measurement": "IC50 against A. flavus", "setting": "[8]", "value": 40, "unit": "mg/L"}, {"measurement": "IC50", "setting": "[9]; Mueller-Hinton Broth, 37° C., 18 hours, up to 20 μM, read-out: IC50 against E. coli", "value": "> 20", "unit": "µM"}, {"measurement": "Inhibition of growth of E. coli", "setting": "[9]; at the concentrations tested (0.3125-20 μM)", "value": "did not inhibit the growth"}, {"measurement": "IC50 against C. tropicalis", "setting": "[10]", "value": 7, "unit": "mg/L"}]}
